Consider 2 molecules from ChEMBL document CHEMBL4819104, “Discovery of 2-amino-3-amido-5-aryl-pyridines as highly potent, orally bioavailable, and efficacious PERK kinase inhibitors” (Bioorg Med Chem Lett, 2021).

In brackets after ≈: the same amount, converted by molar mass.

Data set [1] deals with Tyrosine-protein kinase ABL1 (Homo sapiens), P00519 [F317L]. Briefly: Inhibition of human non-phosphorylated ABL1 F317L mutant (S229 to K512 residues) expressed in mammalian expression system assessed as residual activity at 10 uM by Kinomescan method relative to control.
Data set [2] concerns the target Tyrosine-protein kinase receptor UFO (Homo sapiens) (UniProt P30530). Briefly: Inhibition of wild-type human partial length AXL (R497 to Y821 residues) expressed in bacterial expression system assessed as residual activity at 10 uM by Kinomescan method relative to control.
Data set [3] has as its target Mast/stem cell growth factor receptor Kit (Homo sapiens) (UniProt P10721). Briefly: Inhibition of wild-type human partial length KIT (I571 to D952 residues) expressed in bacterial expression system assessed as residual activity at 10 uM by Kinomescan method relative to control.
Data set [4] addresses Angiopoietin-1 receptor (Homo sapiens) (UniProt Q02763). Briefly: Inhibition of wild-type human partial length TIE2 (N804 to T1112 residues) expressed in bacterial expression system assessed as residual activity at 10 uM by Kinomescan method relative to control.
Data set [5] has as its target T1, Receptor-interacting serine/threonine-protein kinase 1 (Homo sapiens) (UniProt Q13546).
T1 sequence (whole entry): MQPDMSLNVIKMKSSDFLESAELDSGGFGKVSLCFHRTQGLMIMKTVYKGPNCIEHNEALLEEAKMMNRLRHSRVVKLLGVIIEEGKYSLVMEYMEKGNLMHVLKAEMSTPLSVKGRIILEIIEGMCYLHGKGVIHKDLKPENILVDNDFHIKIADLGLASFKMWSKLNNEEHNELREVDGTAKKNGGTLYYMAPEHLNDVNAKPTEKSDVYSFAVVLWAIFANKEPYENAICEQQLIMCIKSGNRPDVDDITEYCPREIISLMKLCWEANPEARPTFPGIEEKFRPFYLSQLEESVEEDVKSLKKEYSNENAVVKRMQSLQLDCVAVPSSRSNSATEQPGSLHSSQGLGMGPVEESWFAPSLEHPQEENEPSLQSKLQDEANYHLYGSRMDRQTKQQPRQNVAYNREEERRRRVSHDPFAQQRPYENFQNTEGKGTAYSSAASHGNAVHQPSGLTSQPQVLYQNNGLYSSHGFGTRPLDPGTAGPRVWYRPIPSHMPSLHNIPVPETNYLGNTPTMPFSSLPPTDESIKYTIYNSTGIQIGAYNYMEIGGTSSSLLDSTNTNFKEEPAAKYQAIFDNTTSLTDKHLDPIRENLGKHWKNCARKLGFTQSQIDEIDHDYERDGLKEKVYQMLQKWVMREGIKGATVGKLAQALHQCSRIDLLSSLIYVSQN
Briefly: Inhibition of wild-type human partial length RIPK1 (M1 to K305 residues) expressed in bacterial expression system assessed as residual activity at 10 uM by Kinomescan method relative to control.

Data set [6] has as its target Epithelial discoidin domain-containing receptor 1 (Homo sapiens) (UniProt Q08345). Briefly: Inhibition of wild-type human partial length DDR1 (R565 to V876 residues) expressed in bacterial expression system assessed as residual activity at 10 uM by Kinomescan method relative to control.
The target of data set [7] is Aurora kinase B (Homo sapiens) (UniProt Q96GD4). Briefly: Inhibition of wild-type human partial length AURKB (D25 to A303 residues) expressed in mammalian expression system assessed as residual activity at 10 uM by Kinomescan method relative to control.
Data set [8] has as its target Proto-oncogene tyrosine-protein kinase Src (Homo sapiens) (UniProt P12931). Briefly: Inhibition of wild-type human partial length SRC (L240 to L536 residues) expressed in bacterial expression system assessed as residual activity at 10 uM by Kinomescan method relative to control.
Data set [9] has as its target T2, Mitogen-activated protein kinase 12 (Homo sapiens) (UniProt P53778).
T2 sequence (whole entry): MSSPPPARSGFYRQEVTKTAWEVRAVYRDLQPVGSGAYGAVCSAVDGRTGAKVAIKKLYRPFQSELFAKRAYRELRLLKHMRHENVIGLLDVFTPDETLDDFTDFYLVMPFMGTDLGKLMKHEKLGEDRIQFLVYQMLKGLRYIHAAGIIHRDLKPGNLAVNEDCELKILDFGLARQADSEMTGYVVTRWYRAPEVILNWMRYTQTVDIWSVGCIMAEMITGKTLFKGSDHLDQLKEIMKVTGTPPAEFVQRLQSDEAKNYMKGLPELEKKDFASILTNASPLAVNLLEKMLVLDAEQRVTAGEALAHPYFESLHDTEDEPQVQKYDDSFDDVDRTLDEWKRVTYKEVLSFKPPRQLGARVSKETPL
Briefly: Inhibition of wild-type human full length p38-gamma (M1 to L367 residues) expressed in mammalian expression system assessed as residual activity at 10 uM by Kinomescan method relative to control.

The target of data set [10] is Platelet-derived growth factor receptor beta (Homo sapiens) (UniProt P09619). Briefly: Inhibition of wild-type human partial length PDGFRbeta (V582 to Y1009 residues) expressed in bacterial expression system assessed as residual activity at 10 uM by Kinomescan method relative to control.
For data set [11], the target named is BDNF/NT-3 growth factors receptor (Homo sapiens) (UniProt Q16620). Briefly: Inhibition of wild-type human partial length TRKB (Q547 to G838 residues) expressed in mammalian expression system assessed as residual activity at 10 uM by Kinomescan method relative to control.
The target in data set [12] is Macrophage colony-stimulating factor 1 receptor (Homo sapiens) (UniProt P07333). Briefly: Inhibition of wild-type human partial length CSF1R (I564 to S939 residues) expressed in bacterial expression system assessed as residual activity at 10 uM by Kinomescan method relative to control.
The nature of data set [13]: Half life in human hepatocytes. It is filed as ADME, cell-based, Hepatocyte.
The nature of data set [14]: Half life in rat hepatocytes. In kind it is ADME, cell-based, Hepatocyte.
The nature of data set [15]: Oral bioavailability in mouse at 10 mg/kg. It is filed as ADME, organism-based. As to conditions: in vivo.
Data set [16] in a line: Plasma protein binding in mouse. In kind it is ADME, cell-free. The settings on record: read-out: PPB (converted).
Data set [17] in a line: Half life in dog hepatocytes. It is filed as ADME, cell-based, Canis lupus familiaris, Hepatocyte.
Data set [18] in a line: Plasma protein binding in dog. In kind it is ADME, cell-free, Canis lupus familiaris. As to conditions: read-out: PPB (converted).
Data set [19] can be described thus: Apparent permeability of the compound across apical to basolateral side in human Caco-2 cells. The settings on record: read-out: permeability. It is filed as ADME, cell-based.
Data set [20] can be described thus: Half life in mouse at 10 mg/kg, po. In kind it is ADME, organism-based. The settings on record: in vivo.
Data set [21] is described as follows: Plasma protein binding in rat. As to conditions: read-out: PPB (converted). It is filed as ADME, cell-free.
A short description of data set [22]: Half life in mouse hepatocytes. In kind it is ADME, cell-based, Hepatocyte.
Data set [23] is described as follows: Plasma protein binding in human. It is filed as ADME, cell-free. The settings on record: read-out: PPB (converted).
The nature of data set [24]: Cmax in mouse at 10 mg/kg, po. Also noted: route oral, dose 10 mg/kg. In kind it is ADME, organism-based. The settings on record: in vivo.
The target of data set [25] is T3, Eukaryotic translation initiation factor 2-alpha kinase 3 (Homo sapiens, UniProt Q9NZJ5).
T3 sequence (Q9NZJ5 whole entry): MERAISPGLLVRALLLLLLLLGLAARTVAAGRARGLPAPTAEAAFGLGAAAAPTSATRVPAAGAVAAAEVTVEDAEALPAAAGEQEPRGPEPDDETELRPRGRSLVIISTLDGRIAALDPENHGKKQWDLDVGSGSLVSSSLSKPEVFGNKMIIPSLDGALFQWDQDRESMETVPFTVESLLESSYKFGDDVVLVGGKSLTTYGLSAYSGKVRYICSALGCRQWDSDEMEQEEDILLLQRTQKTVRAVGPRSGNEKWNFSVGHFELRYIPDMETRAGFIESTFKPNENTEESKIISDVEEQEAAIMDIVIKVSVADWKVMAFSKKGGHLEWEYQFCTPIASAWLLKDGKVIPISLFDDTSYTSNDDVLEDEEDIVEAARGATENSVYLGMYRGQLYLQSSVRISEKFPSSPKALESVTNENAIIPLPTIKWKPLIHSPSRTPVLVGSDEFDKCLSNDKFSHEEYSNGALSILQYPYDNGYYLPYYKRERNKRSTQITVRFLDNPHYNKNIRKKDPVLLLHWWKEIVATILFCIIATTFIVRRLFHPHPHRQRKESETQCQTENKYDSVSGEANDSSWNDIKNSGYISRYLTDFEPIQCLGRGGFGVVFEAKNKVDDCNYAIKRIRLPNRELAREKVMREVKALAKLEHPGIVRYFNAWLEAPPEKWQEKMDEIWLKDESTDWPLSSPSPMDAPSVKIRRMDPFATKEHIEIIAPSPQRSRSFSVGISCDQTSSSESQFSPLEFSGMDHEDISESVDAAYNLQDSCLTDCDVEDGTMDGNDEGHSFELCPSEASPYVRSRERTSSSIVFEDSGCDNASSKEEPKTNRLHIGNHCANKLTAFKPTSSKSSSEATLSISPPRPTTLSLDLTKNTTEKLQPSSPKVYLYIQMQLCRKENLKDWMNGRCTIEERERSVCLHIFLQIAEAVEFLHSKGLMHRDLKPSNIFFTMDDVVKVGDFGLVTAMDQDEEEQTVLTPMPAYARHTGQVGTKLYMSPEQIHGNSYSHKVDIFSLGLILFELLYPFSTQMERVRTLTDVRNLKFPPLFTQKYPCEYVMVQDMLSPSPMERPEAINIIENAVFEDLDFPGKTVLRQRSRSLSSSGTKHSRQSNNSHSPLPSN
Briefly: Inhibition of human His-tagged PERK expressed in Escherichia coli assessed as eIF2alpha phosphorylation by TR-FRET assay. (TR-FRET usually uses a lanthanide donor and a delayed reading to cut background.)

Data set [26] is described as follows: AUC (0 to last) in mouse at 10 mg/kg, po. It is filed as ADME, organism-based. Also noted: time 0 - last, route oral, dose 10 mg/kg. The settings on record: in vivo.
The nature of data set [27]: Efflux ratio of apparent permeability in human Caco-2 cells. It is filed as ADME, cell-based.
Data set [28] in a line: Aqueous solubility of the compound. In kind it is physicochemical. As to conditions: buffer.

Chain of Tyrosine-protein kinase receptor UFO (Homo sapiens) (P30530 whole entry, the tested form may be a part): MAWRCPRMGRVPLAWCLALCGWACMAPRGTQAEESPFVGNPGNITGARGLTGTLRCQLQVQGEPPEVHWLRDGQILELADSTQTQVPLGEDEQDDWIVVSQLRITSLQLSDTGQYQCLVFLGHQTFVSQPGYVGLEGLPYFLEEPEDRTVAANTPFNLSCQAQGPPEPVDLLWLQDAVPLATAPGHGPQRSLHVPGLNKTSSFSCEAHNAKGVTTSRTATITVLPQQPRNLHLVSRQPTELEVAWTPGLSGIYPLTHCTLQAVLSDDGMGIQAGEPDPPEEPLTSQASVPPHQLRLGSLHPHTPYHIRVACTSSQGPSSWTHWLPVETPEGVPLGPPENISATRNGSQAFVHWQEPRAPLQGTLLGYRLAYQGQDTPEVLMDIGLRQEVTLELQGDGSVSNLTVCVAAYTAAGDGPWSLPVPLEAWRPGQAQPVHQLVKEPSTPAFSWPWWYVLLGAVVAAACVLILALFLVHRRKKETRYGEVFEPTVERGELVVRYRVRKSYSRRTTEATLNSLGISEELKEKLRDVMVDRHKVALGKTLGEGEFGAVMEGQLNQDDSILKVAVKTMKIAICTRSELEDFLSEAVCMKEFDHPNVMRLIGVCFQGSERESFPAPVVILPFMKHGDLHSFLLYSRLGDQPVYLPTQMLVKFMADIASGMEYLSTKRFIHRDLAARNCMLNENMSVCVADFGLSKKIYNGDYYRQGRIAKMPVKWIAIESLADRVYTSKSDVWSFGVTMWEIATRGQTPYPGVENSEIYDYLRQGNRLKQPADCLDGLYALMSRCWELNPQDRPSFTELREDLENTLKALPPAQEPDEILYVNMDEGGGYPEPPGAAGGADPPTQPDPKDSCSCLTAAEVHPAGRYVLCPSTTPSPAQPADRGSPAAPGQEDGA
Chain of Angiopoietin-1 receptor (Homo sapiens) (Q02763 whole entry, the tested form may be a part): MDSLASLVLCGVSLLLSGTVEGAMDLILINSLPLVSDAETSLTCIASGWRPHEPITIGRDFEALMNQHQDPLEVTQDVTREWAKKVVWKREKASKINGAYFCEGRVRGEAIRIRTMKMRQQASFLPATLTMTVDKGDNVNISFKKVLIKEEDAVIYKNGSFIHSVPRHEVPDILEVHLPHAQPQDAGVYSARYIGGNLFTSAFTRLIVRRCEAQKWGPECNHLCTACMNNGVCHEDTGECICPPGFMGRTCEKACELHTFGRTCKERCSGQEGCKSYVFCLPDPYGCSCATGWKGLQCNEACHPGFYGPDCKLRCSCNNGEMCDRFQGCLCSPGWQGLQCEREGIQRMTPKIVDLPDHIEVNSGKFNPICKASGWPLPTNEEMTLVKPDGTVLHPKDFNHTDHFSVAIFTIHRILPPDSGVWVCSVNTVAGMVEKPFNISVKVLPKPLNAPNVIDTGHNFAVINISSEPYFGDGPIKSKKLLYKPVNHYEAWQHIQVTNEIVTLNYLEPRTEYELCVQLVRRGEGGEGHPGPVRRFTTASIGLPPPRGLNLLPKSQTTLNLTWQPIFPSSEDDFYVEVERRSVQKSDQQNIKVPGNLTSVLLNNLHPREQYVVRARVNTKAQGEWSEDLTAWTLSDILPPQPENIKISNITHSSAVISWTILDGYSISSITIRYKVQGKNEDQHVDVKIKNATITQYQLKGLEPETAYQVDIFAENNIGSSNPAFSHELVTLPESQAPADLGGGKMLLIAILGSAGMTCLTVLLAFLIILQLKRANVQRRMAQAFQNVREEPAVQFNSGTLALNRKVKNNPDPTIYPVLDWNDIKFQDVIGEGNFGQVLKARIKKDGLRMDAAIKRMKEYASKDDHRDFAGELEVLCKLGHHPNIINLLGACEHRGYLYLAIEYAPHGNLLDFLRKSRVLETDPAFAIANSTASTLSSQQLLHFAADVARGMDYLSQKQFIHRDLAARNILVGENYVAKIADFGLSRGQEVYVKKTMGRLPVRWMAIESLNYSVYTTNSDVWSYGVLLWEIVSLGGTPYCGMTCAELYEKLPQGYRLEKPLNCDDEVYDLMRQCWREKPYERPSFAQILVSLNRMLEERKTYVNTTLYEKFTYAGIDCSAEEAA
Chain of Epithelial discoidin domain-containing receptor 1 (Homo sapiens) (Q08345 whole entry, the tested form may be a part): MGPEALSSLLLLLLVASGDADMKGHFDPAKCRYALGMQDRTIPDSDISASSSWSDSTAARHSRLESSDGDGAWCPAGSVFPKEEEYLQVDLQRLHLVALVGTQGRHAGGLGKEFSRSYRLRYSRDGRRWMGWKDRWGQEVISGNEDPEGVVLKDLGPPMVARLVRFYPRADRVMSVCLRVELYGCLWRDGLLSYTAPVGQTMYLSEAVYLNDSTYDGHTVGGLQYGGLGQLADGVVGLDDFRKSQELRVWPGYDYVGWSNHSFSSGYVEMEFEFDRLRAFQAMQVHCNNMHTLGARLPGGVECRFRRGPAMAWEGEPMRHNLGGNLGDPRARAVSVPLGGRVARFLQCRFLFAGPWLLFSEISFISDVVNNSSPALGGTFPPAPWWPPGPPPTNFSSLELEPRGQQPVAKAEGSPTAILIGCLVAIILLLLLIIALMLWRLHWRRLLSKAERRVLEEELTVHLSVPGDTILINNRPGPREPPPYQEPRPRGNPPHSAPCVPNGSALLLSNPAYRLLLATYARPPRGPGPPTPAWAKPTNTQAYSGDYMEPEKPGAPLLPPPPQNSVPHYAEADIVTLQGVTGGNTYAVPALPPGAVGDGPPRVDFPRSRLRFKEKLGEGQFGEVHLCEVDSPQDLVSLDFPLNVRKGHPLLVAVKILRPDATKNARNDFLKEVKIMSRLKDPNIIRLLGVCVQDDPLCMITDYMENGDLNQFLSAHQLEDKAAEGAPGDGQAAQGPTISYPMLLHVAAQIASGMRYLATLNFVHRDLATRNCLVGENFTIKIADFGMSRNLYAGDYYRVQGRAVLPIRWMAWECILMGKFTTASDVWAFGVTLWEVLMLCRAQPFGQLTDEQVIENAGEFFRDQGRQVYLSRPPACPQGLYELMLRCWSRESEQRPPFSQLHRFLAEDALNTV
Chain of Tyrosine-protein kinase ABL1 (Homo sapiens), P00519 [F317L] (P00519 whole entry F317L, the tested form may be a part): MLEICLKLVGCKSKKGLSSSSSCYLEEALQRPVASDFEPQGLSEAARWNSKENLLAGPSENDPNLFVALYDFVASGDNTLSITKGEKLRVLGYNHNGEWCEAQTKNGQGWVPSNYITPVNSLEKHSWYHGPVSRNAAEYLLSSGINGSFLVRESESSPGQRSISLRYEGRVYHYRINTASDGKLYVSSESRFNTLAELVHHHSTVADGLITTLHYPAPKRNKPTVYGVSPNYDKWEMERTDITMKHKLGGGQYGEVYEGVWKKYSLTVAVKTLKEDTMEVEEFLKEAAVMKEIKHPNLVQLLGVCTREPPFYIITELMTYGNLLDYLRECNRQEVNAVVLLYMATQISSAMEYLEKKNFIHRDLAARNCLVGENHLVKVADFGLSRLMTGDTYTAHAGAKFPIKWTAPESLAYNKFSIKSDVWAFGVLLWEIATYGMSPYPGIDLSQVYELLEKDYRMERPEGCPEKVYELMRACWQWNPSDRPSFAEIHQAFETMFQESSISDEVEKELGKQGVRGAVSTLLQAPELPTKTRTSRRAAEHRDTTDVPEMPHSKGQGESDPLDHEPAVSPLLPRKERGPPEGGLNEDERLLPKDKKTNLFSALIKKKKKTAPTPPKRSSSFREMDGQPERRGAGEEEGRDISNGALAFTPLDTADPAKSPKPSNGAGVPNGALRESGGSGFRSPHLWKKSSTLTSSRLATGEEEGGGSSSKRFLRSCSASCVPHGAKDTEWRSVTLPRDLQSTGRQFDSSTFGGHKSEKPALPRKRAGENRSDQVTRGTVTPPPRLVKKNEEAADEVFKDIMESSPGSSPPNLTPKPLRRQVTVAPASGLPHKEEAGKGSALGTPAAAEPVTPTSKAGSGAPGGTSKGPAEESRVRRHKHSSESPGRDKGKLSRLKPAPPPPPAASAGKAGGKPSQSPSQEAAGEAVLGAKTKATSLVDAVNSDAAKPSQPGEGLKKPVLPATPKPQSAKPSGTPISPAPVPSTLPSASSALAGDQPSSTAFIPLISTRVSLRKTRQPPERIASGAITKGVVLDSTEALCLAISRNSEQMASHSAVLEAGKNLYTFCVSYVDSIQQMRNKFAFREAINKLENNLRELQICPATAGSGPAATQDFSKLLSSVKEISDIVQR
Chain of Proto-oncogene tyrosine-protein kinase Src (Homo sapiens) (P12931 2-536 limits assumed): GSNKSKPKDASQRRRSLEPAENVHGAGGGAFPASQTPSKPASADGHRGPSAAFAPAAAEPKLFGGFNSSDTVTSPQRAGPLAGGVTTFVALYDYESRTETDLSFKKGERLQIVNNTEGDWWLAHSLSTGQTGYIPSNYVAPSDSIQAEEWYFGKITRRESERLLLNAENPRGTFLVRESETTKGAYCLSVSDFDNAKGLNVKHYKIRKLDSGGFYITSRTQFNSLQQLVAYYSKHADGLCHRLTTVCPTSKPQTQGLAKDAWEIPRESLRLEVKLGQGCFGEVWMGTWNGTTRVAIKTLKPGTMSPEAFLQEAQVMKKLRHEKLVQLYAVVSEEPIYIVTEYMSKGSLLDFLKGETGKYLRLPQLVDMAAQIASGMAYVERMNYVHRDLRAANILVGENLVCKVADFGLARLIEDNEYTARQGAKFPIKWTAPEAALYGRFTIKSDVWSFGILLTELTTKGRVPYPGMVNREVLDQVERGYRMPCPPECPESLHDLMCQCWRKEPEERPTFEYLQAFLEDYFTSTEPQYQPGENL
Chain of Aurora kinase B (Homo sapiens) (Q96GD4 whole entry, the tested form may be a part): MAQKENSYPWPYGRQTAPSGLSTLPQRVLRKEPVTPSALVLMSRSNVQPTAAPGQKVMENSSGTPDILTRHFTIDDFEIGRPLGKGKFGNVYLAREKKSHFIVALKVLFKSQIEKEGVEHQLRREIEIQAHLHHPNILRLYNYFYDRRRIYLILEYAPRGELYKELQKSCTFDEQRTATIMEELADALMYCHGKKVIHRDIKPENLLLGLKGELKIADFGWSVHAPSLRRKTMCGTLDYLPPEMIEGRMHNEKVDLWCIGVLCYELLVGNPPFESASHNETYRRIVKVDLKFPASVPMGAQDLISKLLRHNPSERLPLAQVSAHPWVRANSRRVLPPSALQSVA

Take `Cc1cccc(CC(=O)N2CCc3c2ccc(-c2cn(C)c4ncnc(N)c24)c3F)n1`: the Activity was found to be 0% in data set [1]; 8.2% in data set [2]; 0.1% in data set [3]; 5.3% in data set [4]; 0% in [5]; 1.3% in data set [6]. The Activity in data set [7] worked out at 5.3%; in data set [8] it was 7%; in data set [9], 3.7%; in [10], 0.2%; in [11] it was 6.5%; in data set [12], 1.8%.

As for `Cc1cc(NC(=O)[C@H](O)c2cc(F)cc(F)c2)ccc1-c1cnc(N)c(C(=O)NC(C)C)c1`, the half-life was 4.08 h in data set [13]; 9.3 min in data set [14]; 3.12 h in data set [17]; 1.2 h in data set [20]; 1.15 h in data set [22]. For the same molecule, the bioavailability in data set [15] was 49%. For the same molecule, the fraction unbound in data set [16] was 0.017; in data set [18] it was 0.014; in data set [21], 0.024; in data set [23], 0.007. Moreover, the Papp A→B in data set [19] is 15 ×10⁻⁶ cm/s. This molecule returned a Cmax in [24] of 1600 ng/mL. Also, in data set [25], the IC50 came to 4 nM. Moreover, in data set [26], the AUC(0-t) turned out to be 2000 ng·h/mL. Further, the efflux ratio in data set [27] was determined as 2. In addition, in data set [28], the concentration in solution (solubility) was 31 µM (≈ 14.1 µg/mL).

In general, half-life refers to how long it takes for the measured level to halve. A higher half-life goes with slow decline. The term bioavailability denotes the share of a dose that reaches the circulation, judged against a reference dose that is usually intravenous. Broadly, the Cmax is the maximum level reached in the sampled fluid or tissue. The IC50 is the concentration at which inhibition is half-maximal. For orientation: AUC(0-t) means exposure summed from dosing to a finite time, without extrapolation to infinity. The low end stands for less exposure, the high end for more exposure. As a reminder, the efflux ratio is a quotient of directional permeabilities that is used to spot active efflux. Broadly, the solubility is the dissolved amount per volume that the medium holds. Low readings indicate a poorly soluble substance, high ones a readily soluble substance.
